15 molecules from patent US20250129069A1, “TRIAZOLO WRN INHIBITORS” (Nimbus Wadjet, Inc., priority 2023, published 2025) can be followed below.

The test system of assay [1] is p21 induction in HCT 116 cells. As to the kind of experiment: p21 induction in cells (In-Cell Western, p21/GAPDH ratio). The assay is classed as cell-based. Conditions: Homo sapiens, 24 h compound incubation, read-out: p21_EC50. The gist of the method: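 HCT 116 cells treated 24 h at 37° C with 11-point, 2-fold dilutions typically from 10 μM, in duplicate. Fixed cells co-stained for p21 (800 nm) and GAPDH (700 nm) by In-Cell Western. p21/GAPDH ratio normalised between DMSO and reference WRN inhibitor controls, and EC50 obtained by nonlinear regression.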

The target of assay [2] is human Werner helicase (WRN, amino acids 517-1235 with L1074F point mutation) (Homo sapiens (Human), UniProt Q14191, L1074F). As to the kind of experiment: WRN (BV08) ADP-Glo assay. It counts as biochemical. Conditions: human WRN (aa 517-1235, L1074F), read-out: ADP-Glo_hWRN_IC50. The gist of the method: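 Untagged WRN 517-1235 (L1074F), Sf9/baculovirus-expressed, 0.15 nM, preincubated 15 min with compound, then 5 μM ATP and 0.1 nM annealed DNA duplex added; 60 min at 25 °C in Bicine pH 7.5, 1 mM MgCl2, 1% DMSO. ADP-Glo luminescence; % inhibition vs DMSO and 20 μM NSC-617145 controls, four-parameter IC50 fit.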
On the technique in general: ADP-Glo first removes unused ATP, then detects ADP through luciferase.

Structures are written as SMILES.

Chain of human Werner helicase (WRN, amino acids 517-1235 with L1074F point mutation) (Q14191 other isoform, or with tags, fused parts or gaps L1074F (already in the parent)): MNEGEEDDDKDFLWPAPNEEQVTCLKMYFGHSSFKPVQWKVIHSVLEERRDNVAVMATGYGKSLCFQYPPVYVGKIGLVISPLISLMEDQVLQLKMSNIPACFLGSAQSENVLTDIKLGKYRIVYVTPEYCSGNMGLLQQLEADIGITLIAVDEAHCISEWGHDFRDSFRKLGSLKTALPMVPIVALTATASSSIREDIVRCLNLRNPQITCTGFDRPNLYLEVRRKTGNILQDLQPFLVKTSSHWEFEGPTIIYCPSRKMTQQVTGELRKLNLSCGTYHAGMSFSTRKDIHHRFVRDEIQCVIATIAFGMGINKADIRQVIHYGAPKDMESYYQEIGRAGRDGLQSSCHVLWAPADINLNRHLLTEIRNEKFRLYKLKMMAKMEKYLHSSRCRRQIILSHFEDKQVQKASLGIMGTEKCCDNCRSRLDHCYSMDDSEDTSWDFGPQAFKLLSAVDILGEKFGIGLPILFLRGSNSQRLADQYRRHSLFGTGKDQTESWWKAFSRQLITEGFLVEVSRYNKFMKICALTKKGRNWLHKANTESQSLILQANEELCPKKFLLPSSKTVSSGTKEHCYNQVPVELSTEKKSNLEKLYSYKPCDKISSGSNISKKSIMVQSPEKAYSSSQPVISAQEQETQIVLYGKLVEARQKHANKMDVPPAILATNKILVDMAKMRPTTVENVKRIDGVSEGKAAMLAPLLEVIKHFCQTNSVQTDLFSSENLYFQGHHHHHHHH

Regarding `CCc1c(N2CCN(C(=O)c3csnc3OC)[C@H]3CC[C@@H]32)c(=O)c2nn(C3=CCOCC3)nc2n1CC(=O)NC12CC(C(C)C)(C1)C2` [Compound I-175, 2-[2-(3,6-dihydro-2H-pyran-4-yl)-5-ethyl-6-[(1S,6S)-5-(3-methoxy-1,2-thiazole-4-carbonyl)-2,5-diazabicyclo[4.2.0]octan-2-yl]-7-oxo-2H,4H,7H-[1,2,3]triazolo[4,5-b]pyridin-4-yl]-N-[3-(propan-2-yl)bicyclo[1.1.1]pentan-1-yl]acetamide], the EC50 in assay [1] is at most 500 nM. In assay [2], the IC50 was 5 to 50 nM.
For `CCc1c(N2CCN(C(=O)c3c(OC)ncc(F)c3O)[C@H]3CC[C@@H]32)c(=O)c2nn(-c3ccnc(OC)c3)nc2n1CC(=O)NC12CC(C(C)C)(C1)C2` [Compound I-177, 2-{5-ethyl-6-[(1S,6S)-5-(5-fluoro-4-hydroxy-2-methoxypyridine-3-carbonyl)-2,5-diazabicyclo[4.2.0]octan-2-yl]-2-(2-methoxypyridin-4-yl)-7-oxo-2H,4H,7H-[1,2,3]triazolo[4,5-b]pyridin-4-yl}-N-[3-(propan-2-yl)bicyclo[1.1.1]pentan-1-yl]acetamide], in that order: at most 500 nM and at most 5 nM.
For `CCc1c(N2CCN(C(=O)c3ncnc(C)c3O)[C@H](C)C2)c(=O)c2nn(-c3ccnc(OC)c3)nc2n1CC(=O)NC12CC(C3CC3)(C1)C2` [Compound I-178, N-{3-cyclopropylbicyclo[1.1.1]pentan-1-yl}-2-{5-ethyl-6-[(3R)-4-(5-hydroxy-6-methylpyrimidine-4-carbonyl)-3-methylpiperazin-1-yl]-2-(2-methoxypyridin-4-yl)-7-oxo-2H,4H,7H-[1,2,3]triazolo[4,5-b]pyridin-4-yl}acetamide] the same measures were 500 to 2000 nM and 5 to 50 nM.
For `CCc1c(N2CCN(C(=O)c3ncnc(C)c3O)[C@H]3CC[C@@H]32)c(=O)c2nn(-c3cccc(C)n3)nc2n1CC(=O)NC12CC(C(C)C)(C1)C2` [Compound I-179, 2-{5-ethyl-6-[(1S,6S)-5-(5-hydroxy-6-methylpyrimidine-4-carbonyl)-2,5-diazabicyclo[4.2.0]octan-2-yl]-2-(6-methylpyridin-2-yl)-7-oxo-2H,4H,7H-[1,2,3]triazolo[4,5-b]pyridin-4-yl}-N-[3-(propan-2-yl)bicyclo[1.1.1]pentan-1-yl]acetamide], in that order: at most 500 nM and 5 to 50 nM.
For `CCc1c(N2CCN(C(=O)c3ccccn3)[C@H]3CC[C@@H]32)c(=O)c2nn(C3=CCOCC3)nc2n1CC(=O)NC12CC(C(C)C)(C1)C2` [Compound I-184, 2-[2-(3,6-dihydro-2H-pyran-4-yl)-5-ethyl-7-oxo-6-[(1S,6S)-5-(pyridine-2-carbonyl)-2,5-diazabicyclo[4.2.0]octan-2-yl]-2H,4H,7H-[1,2,3]triazolo[4,5-b]pyridin-4-yl]-N-[3-(propan-2-yl)bicyclo[1.1.1]pentan-1-yl]acetamide], the EC50 in assay [1] fell in the range of 500 to 2000 nM. Moreover, in assay [2], the IC50 was 5 to 50 nM.
For `CCc1c(N2CCN(C(=O)c3cc(N4CCC(C)(O)C4)cnc3OC)[C@H]3CC[C@@H]32)c(=O)c2nn(C3=CCOCC3)nc2n1CC(=O)NC12CC(C3CC3)(C1)C2` (stereo partly drawn) [Compound I-186, N-{3-cyclopropylbicyclo[1.1.1]pentan-1-yl}-2-[2-(3,6-dihydro-2H-pyran-4-yl)-5-ethyl-6-[(1S,6S)-5-[5-(3-hydroxy-3-methylpyrrolidin-1-yl)-2-methoxypyridine-3-carbonyl]-2,5-diazabicyclo[4.2.0]octan-2-yl]-7-oxo-2H,4H,7H-[1,2,3]triazolo[4,5-b]pyridin-4-yl]acetamide], the EC50 in assay [1] was in the range of 500 to 2000 nM. Further, the IC50 in assay [2] lay within 5 to 50 nM.
For `CCc1c(N2CCN(C(=O)c3ncnc(C)c3O)[C@H]3CC[C@@H]32)c(=O)c2nn(-c3ccn(C)n3)nc2n1CC(=O)NC12CC(C(C)C)(C1)C2` [Compound I-187, 2-{5-ethyl-6-[(1S,6S)-5-(5-hydroxy-6-methylpyrimidine-4-carbonyl)-2,5-diazabicyclo[4.2.0]octan-2-yl]-2-(1-methyl-1H-pyrazol-3-yl)-7-oxo-2H,4H,7H-[1,2,3]triazolo[4,5-b]pyridin-4-yl}-N-[3-(propan-2-yl)bicyclo[1.1.1]pentan-1-yl]acetamide], in that order: at most 500 nM and 5 to 50 nM.
With `CCc1c(N2CCN(C(=O)c3ncnc(C)c3O)[C@H]3CC[C@@H]32)c(=O)c2nn(C3CC3(F)F)nc2n1CC(=O)Nc1ccc(C(F)(F)F)cc1Cl` (stereo partly drawn) [Compound I-189, N-[2-chloro-4-(trifluoromethyl)phenyl]-2-[2-(2,2-difluorocyclopropyl)-5-ethyl-6-[(1S,6S)-5-(5-hydroxy-6-methylpyrimidine-4-carbonyl)-2,5-diazabicyclo[4.2.0]octan-2-yl]-7-oxo-2H,4H,7H-[1,2,3]triazolo[4,5-b]pyridin-4-yl]acetamide], in assay [1], the EC50 was at most 500 nM. Moreover, the IC50 in assay [2] was at most 5 nM.
For `CCc1c(N2CCN(C(=O)c3c(OC)nc(C(F)F)c(C)c3O)[C@H]3CC[C@@H]32)c(=O)c2nn(C3=CCOCC3)nc2n1CC(=O)NC12CC(C3CC3)(C1)C2` [Compound I-190, N-{3-cyclopropylbicyclo[1.1.1]pentan-1-yl}-2-{6-[(1S,6S)-5-[6-(difluoromethyl)-4-hydroxy-2-methoxy-5-methylpyridine-3-carbonyl]-2,5-diazabicyclo[4.2.0]octan-2-yl]-2-(3,6-dihydro-2H-pyran-4-yl)-5-ethyl-7-oxo-2H,4H,7H-[1,2,3]triazolo[4,5-b]pyridin-4-yl}acetamide], in that order: at most 500 nM and 5 to 50 nM.
For `CCc1c(N2CCN(C(=O)c3c(OC)ccnc3OC)[C@H]3CC[C@@H]32)c(=O)c2nn(C3=CCOCC3)nc2n1CC(=O)NC12CC(C(C)C)(C1)C2` [Compound I-191, 2-[2-(3,6-dihydro-2H-pyran-4-yl)-6-[(1S,6S)-5-(2,4-dimethoxypyridine-3-carbonyl)-2,5-diazabicyclo[4.2.0]octan-2-yl]-5-ethyl-7-oxo-2H,4H,7H-[1,2,3]triazolo[4,5-b]pyridin-4-yl]-N-[3-(propan-2-yl)bicyclo[1.1.1]pentan-1-yl]acetamide] the same measures were at most 500 nM and 5 to 50 nM.
With `CCc1c(N2CCN(C(=O)c3c(N)ncnc3OC)[C@H]3CC[C@@H]32)c(=O)c2nn(C3=CCOCC3)nc2n1CC(=O)NC12CC(C3CC3)(C1)C2` [Compound I-193, 2-{6-[(1S,6S)-5-(4-amino-6-methoxypyrimidine-5-carbonyl)-2,5-diazabicyclo[4.2.0]octan-2-yl]-2-(3,6-dihydro-2H-pyran-4-yl)-5-ethyl-7-oxo-2H,4H,7H-[1,2,3]triazolo[4,5-b]pyridin-4-yl}-N-{3-cyclopropylbicyclo[1.1.1]pentan-1-yl}acetamide], the EC50 in assay [1] fell in the range of 500 to 2000 nM. Besides, the IC50 in assay [2] was 5 to 50 nM.
For `CCc1c(N2CCN(C(=O)c3ncnc(C)c3O)[C@H]3CC[C@@H]32)c(=O)c2nn(-c3ccnc(OC)c3)nc2n1CC(=O)NC12CC(C3CCCC3)(C1)C2` [Compound I-195, N-{3-cyclopentylbicyclo[1.1.1]pentan-1-yl}-2-{5-ethyl-6-[(1S,6S)-5-(5-hydroxy-6-methylpyrimidine-4-carbonyl)-2,5-diazabicyclo[4.2.0]octan-2-yl]-2-(2-methoxypyridin-4-yl)-7-oxo-2H,4H,7H-[1,2,3]triazolo[4,5-b]pyridin-4-yl}acetamide], in that order: at most 500 nM and at most 5 nM.
For the molecule `CCc1c(N2CCN(C(=O)c3cccnc3OC)[C@H]3CC[C@@H]32)c(=O)c2nn(C3=CCOCC3)nc2n1CC(=O)NC12CC(C(C)C)(C1)C2` [Compound I-198, 2-[2-(3,6-dihydro-2H-pyran-4-yl)-5-ethyl-6-[(1S,6S)-5-(2-methoxypyridine-3-carbonyl)-2,5-diazabicyclo[4.2.0]octan-2-yl]-7-oxo-2H,4H,7H-[1,2,3]triazolo[4,5-b]pyridin-4-yl]-N-[3-(propan-2-yl)bicyclo[1.1.1]pentan-1-yl]acetamide], the EC50 in assay [1] was at most 500 nM. For the same molecule, the IC50 in assay [2] fell in the range of 5 to 50 nM.
Take `CCc1c(N2CCN(C(=O)c3cccc4oc(=O)[nH]c34)[C@H]3CC[C@@H]32)c(=O)c2nn(C3=CCOCC3)nc2n1CC(=O)NC12CC(C(C)C)(C1)C2` [Compound I-199, 2-[2-(3,6-dihydro-2H-pyran-4-yl)-5-ethyl-7-oxo-6-[(1S,6S)-5-(2-oxo-2,3-dihydro-1,3-benzoxazole-4-carbonyl)-2,5-diazabicyclo[4.2.0]octan-2-yl]-2H,4H,7H-[1,2,3]triazolo[4,5-b]pyridin-4-yl]-N-[3-(propan-2-yl)bicyclo[1.1.1]pentan-1-yl]acetamide]: the EC50 in assay [1] was at most 500 nM. The IC50 in assay [2] was 5 to 50 nM.
For `CCc1c(N2CCN(C(=O)c3nccnc3OC)[C@H]3CC[C@@H]32)c(=O)c2nn(C3=CCOCC3)nc2n1CC(=O)NC12CC(C(C)C)(C1)C2` [Compound I-200, 2-[2-(3,6-dihydro-2H-pyran-4-yl)-5-ethyl-6-[(1S,6S)-5-(3-methoxypyrazine-2-carbonyl)-2,5-diazabicyclo[4.2.0]octan-2-yl]-7-oxo-2H,4H,7H-[1,2,3]triazolo[4,5-b]pyridin-4-yl]-N-[3-(propan-2-yl)bicyclo[1.1.1]pentan-1-yl]acetamide] the same measures were at most 500 nM and 5 to 50 nM.
